Tests used:
[1] = system: human peripheral blood mononuclear cells (PBMCs); experiment: IFNβ production in PBMCs treated with exosome-encapsulated or free STING agonist; type: cell-based; settings: free STING agonists, human PBMCs overnight
Experimental: Exosome-encapsulated STING agonist and free STING agonist were tested for activity in human peripheral blood mononuclear cells (PBMCs). PBMCs were isolated from fresh human blood by centrifugation over a layer of Lymphoprep at 1000×g for 15 minutes. The resulting buffy coat was washed in PBS and counted. PBMCs were plated in 96-well U-bottom plates. Titrations of the exosome-encapsulated (Exo-STING agonist) or free STING agonist were prepared in a separate U-bottom plate to perform dose-response studies. The exosome-encapsulated or free STING agonist was added to the PBMCs and incubated at 37° C. overnight. General activation of PBMCs by the STING agonist was detected by measuring the amount of IFNβ in the supernatant. […] To understand which cell types in PBMCs are differentially affected by Exo-STING agonist, monocyte and dendritic cell activation was measured. […] Monocytes were robustly activated by the STING agonist alone with over 90% becoming activated at micromolar concentrations of the agonist. […]
HEK293SF cells overexpressing PTGFRN were grown in shake flasks and the resulting exosomes were purified by Optiprep™ density gradient ultracentrifugation as described in the Methods. […] Loading was quantified as described in Example 1. […] Activation of PBMCs by the STING agonists was detected by measuring the amount of IFNβ in the supernatant. […]

[2] = system: B16F10 murine melanoma cells; experiment: B16F10 tumor growth in C57BL/6 and STING knock-out mice; type: in vivo, C57BL/6 mice and C57BL/6-Tmem173^gt mice
Experimental: To confirm that the effects observed in FIGS. 54-58 were translated to anti-tumor activity, C57BL/6 mice and C57BL/6-Tmem173^gt mice were inoculated subcutaneously with 1×10^6 B16F10 murine melanoma cells (n=5 mice per group). Seven, ten, and thirteen days post-inoculation, the mice were injected intratumorally with PBS, exosomes, 20 μg of free 3-3 cAIMPdFSH, or 0.1 μg of 3-3 cAIMPdFSH loaded in PTGFRN-overexpressing exosomes. Tumor volumes were measured daily until day 19, and animals were sacrificed when tumor volume reached 2000 mm^3.

[3] = system: B16F10 murine melanoma cells; experiment: Dual flank B16F10 model, injected and contralateral tumors; type: in vivo, C57BL/6 mice
Text: In addition, activation of the STING pathway induces the upregulation of immune pathway checkpoints, which subsequently reduce T-cell-mediated cell killing, and thus moderate the effects of STING pathway agonism as a therapeutic rationale (Cell Rep. 2015 May 19; 11(7):1018-30). To test both hypotheses, C57BL/6 mice were inoculated subcutaneously with 1×10^6 and 5×10^5 B16F10 murine melanoma cells into right and left flank of mice, respectively (n=5 mice per group). Seven, ten, and thirteen days post-inoculation, the tumor at right flank were injected intratumorally with exosomes, 20 μg of free 3-3 cAIMPdFSH, 0.1 μg of free 3-3 cAIMPdFSH, or 0.1 μg 3-3 cAIMPdFSH loaded in PTGFRN-overexpressing exosomes, with a control antibody (α-IgG; 10 mg/kg; BioLegend, Catalog #400559, Clone RTK3758) or an antagonistic antibody against PD-1 (a PD-1; 10 mg/kg; BioLegend, Catalog #114111, Clone RMPI-14). Antibodies were injected intraperitoneally. Tumor volumes were measured daily until day 21, and animals were sacrificed when tumor volume reached 2000 mm^3.

[4] = system: peritoneal cells and splenocytes; experiment: Immune cell activation (CD86) in peritoneum and spleen 24 hours after intraperitoneal dose; type: in vivo, C57BL/6 mice; settings: 20 μg single IP dose
Experimental: A second experiment similar to the previous study was carried out with single-dose IP administration, and extended to 24 hours. Peritoneal cells and splenocytes were isolated from treated mice, and cell activation was measured by detection of CD86.

SMILES	IFNβ induction [1]	tumor regression ([2]; C57BL/6-Tmem173^gt mice, 20 μg free)	tumor regression ([2]; C57BL/6 mice, free, printed 20 g, days 7, 10, 13)	injected tumor growth ([3]; 0.1 μg free + IgG or Anti-PD1)	contralateral (not injected) tumor ([3]; 20 μg free)	contralateral tumor reduction with anti-PD1 ([3]; 20 μg free + anti-PD-1 10 mg/kg IP)	injected tumor growth ([3]; 20 μg free, regardless of anti-PD1)	peritoneal cell activation (CD86) [4]	spleen immune cell activation (CD86) [4]
Nc1ncnc2c1ncn2[C@@H]1O[C@@H]2COP(=O)(S)O[C@H]3[C@@H](F)[C@H](n4cnc5c(=O)[nH]cnc54)O[C@@H]3COP(O)(=S)O[C@H]2[C@H]1F (stereo partly shown) [3-3 cAIMPdFSH, 3′3′-cAIMPdFSH]	induced IFNβ to a similar extent	no tumor regression was observed	dramatically improved tumor regression	moderately potentiated	significant tumor reduction	more strengthened with anti-PD1 combination	Almost completely eliminated	–	–
Nc1ncnc2c1ncn2[C@@H]1O[C@@H]2COP(O)(=S)O[C@@H]3C(O)[C@@H](COP(O)(=S)O[C@H]2[C@H]1O)O[C@H]3n1cnc2c(N)ncnc21 (stereo partly shown) [ML RR-S2 CDA]	induced IFNβ to a similar extent	–	–	–	–	–	–	activation of peritoneal B cells, macrophages, monocytes and conventional dendritic cells (cDCs)	moderate levels of immune cell activation
